Reference: PMC6279743, “A small molecule ApoE4-targeted therapeutic candidate that normalizes sirtuin 1 levels and improves cognition in an Alzheimer’s disease mouse model” (Scientific Reports, 2018)
Entries after “also recorded” stand apart in the source; their conditions may differ. Like-named read-outs stand apart in the source and are kept apart here.

Assays:
[1] = test system: SirT1 levels in N2a-E4 cells; assay: SirT1 AlphaLISA in N2a-E4 cells (HTS, secondary and dose-response testing); assay type: cell-based, murine; conditions: for SirT1 increase, racemate vs enantiomers: 5 and 50 μM, n = 3 wells; for Dose-response increase in SirT1 in secondary testing: N2a-E4 cells, 1, 5 and 10 μM; for SirT1 level in HTS: 24 hrs, NIH Clinical Collection screen, A03 5 μM as positive control
Protocol: For HTS we tested a portion of the UCLA compound library (10 plates) including the NIH Clinical Collection library (3 plates). Complete medium (25 µL) was added to each well of 384-well plates, then library compounds were added (250 nL) followed by a suspension of 4 × 10^5 cells/mL murine neuroblastoma N2a cells (25 μL) stably transfected with ApoE4 (N2a-E4). After incubation of the N2a-E4 cells with compounds for 24 hrs at 37 °C and 5% CO2, all but ~6 μL of medium were removed and AlphaLISA Lysis Buffer complemented with HALT protease/phosphatase inhibitor (20 μL, 1X final) was added to each well. To maximize lysis, the plates were frozen at −80 °C. For the AlphaLISA, lysates were thawed and vortexed for 1 min at 3000 rpm.
The AlphaLISA comprises streptavidin donor beads, biotinylated anti-SirT1 N-terminal antibody (19A7AB4), and acceptor beads conjugated to the anti-SirT1 C-terminal antibody (1F3); when the target protein is bound by both antibodies, the beads are in close enough proximity for a transfer of ^1O2 and emission of a detectable signal (Supplementary Fig. S3). For the AlphaLISA, a 384-proxy plate was preloaded with AlphaLISA buffer (2 µL, 1X) with HALT (1X), then cell lysate (2 μL) was transferred to the proxy plate followed by the antibody-mix (2 μL). After incubation at room temperature for 1 hr, the donor bead mixture was added (2 µL) and incubated for an additional 30 min. The plates were then read in an Envision plate reader. All points are one replicate. The standard curve is generated by serial dilution of recombinant SirT1 to assess the linear range of the assay; study samples undergo serial dilution as well. We use A03 as a positive control in the HTS assay. The Z-value, while not ideal, was <1 for the assay (Supplementary Fig. S3).
Compound in medium (50 µL, 2X) was loaded into a 96-well plate, then 4 × 10^4 cells were added to each well; 24 hrs later the medium was removed and cells lysed. Lysate protein concentration was determined using the Bradford assay according to the manufacturer’s instructions. SirT1 was determined in lysates using the SirT1 AlphaLISA as described above.

[2] = Pharmacokinetics after subcutaneous (SQ) injection in mice; assay type: in vivo; conditions: mouse, mice, SQ 10 mg/kg; for Cmax: brain, n = 1, read-out: Cmax in brain
[3] = Brain compound levels 2 hours after the last dose in efficacy studies; assay type: in vivo, mice; conditions: pilot study, SQ 10 mg/kg/day, 28 days, n = 8
Protocol: Mice were euthanized and blood/tissues collected 2 hrs after dosing on day 28 by the method described above for PK. Frontal and parietal cortices (FrCx and PtCx, respectively), as well as the remaining brain tissue, from individual mice were dissected, snap frozen on dry ice, and stored at −80 °C. Plasma samples and the brain tissue minus the FrCx and PtCx (the ‘rest’) from all compound-treated mice were sent to IAS for compound level analysis as described above.
Mice were euthanized and blood/tissues collected 2 hrs after dosing on Day 25 by the method described above for PK. FrCx, PtCx, and hippocampi (Hip) were collected from all mice for SirT1 and sAPPα level determination by AlphaLISA. Protein concentration was determined using a Bradford protein assay. Brain and plasma levels of A03 were determined at IAS.
Mice were euthanized and blood/tissues collected 2 hrs after dosing on Day 56 by the method described above for PK. Hip and FrCx were collected for analysis of SirT1, sAPPα, and Aβ1-42 levels by AlphaLISA. For Aβ1-42 the Perkin Elmer kit AL276C was used. Protein concentrations were determined using the Bradford protein assay. The sAPPα and sAPPβ AlphaLISAs were similar to the SirT1 AlphaLISA (see Supplementary Fig. S3) but the former uses anti-sAPPα antibody AF1168 and 2B3-biotinylated antibodies and the latter an anti-sAPPβ antibody (IBL Cat. #18957) and an anti-N-terminal APP antibody (R&D Systems AF1168) instead of anti-SirT1 antibodies. Brain tissue and plasma were sent to IAS for A03 level analysis.

[4] = Parallel Artificial Membrane Permeability Assay (PAMPA; IAM column); assay type: in vitro ADME; conditions: for retention time (Tr) in PAMPA: IAM.PC.DD2 column, acetonitrile:PBS (pH 5.6) 35:65; for KIAM: KIAM = (Tr-T0)/T0, T0 = 1.24 min; for (KIAM/MW^4) * 10^−(10): MW 255.74 g/mol
Protocol: We used L(+)tartaric acid to isolate the L-enantiomer salt and D(-) tartaric acid to isolate the D-enantiomer salt, followed by neutralization of the salt with NaOH and re-crystallization to obtain the enantiomers. Enantiomer abundance (Supplementary Fig. S4) was determined by HPLC using a Chiralpak IB column. Isopropanol (0.2% diethylamine)/hexanes was used for gradient elution with 5–50% isopropanol (0.2% diethylamine) for 11 min, a Chiralpak IB column, and with sample (1 μL, 1.25 mg/mL) injection, 220 nm wavelength detection, and a flow rate of 1 mL/min. […] The L-alanine analog co-elutes with enantiomer-1 while the D-alanine analog co-elutes with enantiomer-2. Analysis of the enantiomers and A03 in the Parallel Artificial Membrane Permeability Assay (PAMPA) was performed and is described in Supplementary Methods. […]
PAMPA. An IAM.PC.DD2 Regis Technologies analytical (10 cm x 4.6 mm) column wherein phospholipid is bonded on 10 μm, 300 Å, spherical aminopropyl silica and end capped with C10 and C3 amides was used to determine membrane permeability of A03, E1 and E2. An isocratic method was used with a mobile phase comprising acetonitrile:PBS (pH 5.6) equal to 35:65, an injection volume of 5 µL, and a flow rate of 1 mL/min. The parameters determined are Tr = retention time of compound; KIAM= (Tr-T0)/T0; T0= is the delay time of the column, determined by use of 100 µg/mL citric acid) and was T0= 1.24 min; and (KIAM/MW4)*10-(10). The molecular weight of all three compounds was 255.74 g/mol. […]
Supplementary Fig. S1. […] (a) Transient transfection with either
ApoE3 or E4 decreased SirT1 levels as compared to empty vector (Pc/DMSO), but the decrease was greater with […]

[5] = Pharmacokinetics after oral delivery in mice; assay type: in vivo; conditions: oral 10 mg/kg; for Tmax / AUC: mouse; for Tmax: brain, n = 1 per time point; for AUC: plasma; for AUC / AUC brain: 1-8 hours
Protocol: All in vivo experiments described were carried out in strict accordance with good animal practice according to NIH recommendations. All procedures for animal use were approved by the Animal Research Committee (ARC) at UCLA and under an approved ARC protocol. Pharmacokinetic (PK) analysis[68]–[70] consisted of oral delivery of compounds (10 mg/Kg) to individual mice followed by euthanasia at 1, 2, 4, 6, and 8 hours post-dose by ketamine/xylazine over-anesthesia, blood collection by cardiac puncture, and transcardial saline perfusion. Whole blood was centrifuged at 5000 rpm for 10 min. in a 5 °C centrifuge to isolate plasma and the plasma stored at −20 °C before analysis. Whole brains were collected, dissected down the midline, snap frozen on dry ice, and stored at −80 °C before analysis. The levels of the compounds in both plasma and brain tissue were determined by a quantitative LC/MS/MS methodology at Integrated Analytical Solutions (IAS, Berkeley, CA). Plasma samples were precipitated with an acetonitrile: methanol (1:1) cocktail containing an internal standard. Brain samples were homogenized directly in ethyl acetate by the liquid-liquid method. The resulting supernatant was evaporated to dryness and subjected to LC/MS/MS analysis. The Tmax, Cmax, brain-to-plasma ratios and brain levels were then calculated using PK Solutions software (SummitPK).

humans = test system: humans; parameters: method as in PMID 22616762; conditions: cited from earlier work
[6] = secondary assay, N2a-E4 cells, n = 6 wells

C[C@H](N)C(=O)OC(C)(C)Cc1ccc(Cl)cc1 [E1]
SirT1 increase, racemate vs enantiomers ([1]; N2a-E4 cells): more effective in increasing SirT1 in vitro compared to the optical antipode E2; also recorded: increase SirT1 in N2a-E4 with high significance
Cmax ([2]; sc): ~5600 ng/g
Cmax ([2]; subcutaneous): ~5800 ng/g
AUC ([2]; plasma, sc): 657 ng·h/mL
Brain levels 2 hours after the last dose, E1 vs A03 [3]: slightly lower
retention time (Tr) in PAMPA [4]: 3.3
KIAM [4]: 1.66
(KIAM/MW^4) * 10^−(10) [4]: 3.88
Tmax [5]: 1 h
AUC [5]: 86 ng·h/mL
AUC brain [5]: 850 ng·h/g

C[C@@H](N)C(=O)OC(C)(C)Cc1ccc(Cl)cc1 [E2]
SirT1 increase, racemate vs enantiomers ([1]; N2a-E4 cells): shows lower potency
retention time (Tr) in PAMPA [4]: 3.31
KIAM [4]: 1.67
(KIAM/MW^4) * 10^−(10) [4]: 3.90
Tmax [5]: 1 h
AUC [5]: 104 ng·h/mL
AUC brain [5]: 806 ng·h/g

Cc1nc(-c2cccnc2)sc1C(=O)Nc1ccccc1-c1cn2c(CN3CCOCC3)csc2n1 [SRT2104]
Tolerability after single and multiple oral dosing (humans): well tolerated

CNCCC(Oc1ccc(C(F)(F)F)cc1)c1ccccc1 (centres unmarked) [fluoxetine, reference compound]
Dose-response increase in SirT1 in secondary testing [1]: neither fluoxetine nor memantine (Fig. 3a) elicited a dose-response increase in SirT1
SirT1 level in HTS ([1]; N2a-E4 cells): neither fluoxetine nor memantine enhanced SirT1
SirT1 increase vs DMSO control at 1 μM [1, 6]: only A03 and memantine at 1 μM elicited modest but significant increases

CC12CC3CC(C)(C1)CC(N)(C3)C2 [memantine, reference compound]
Dose-response increase in SirT1 in secondary testing [1]: neither fluoxetine nor memantine (Fig. 3a) elicited a dose-response increase in SirT1
SirT1 level in HTS ([1]; N2a-E4 cells): neither fluoxetine nor memantine enhanced SirT1
SirT1 increase vs DMSO control at 1 μM [1, 6]: modest but significant increases
SirT1 increase vs DMSO control at 5 and 10 μM ([1]; secondary assay, N2a-E4 cells, 5 and 10 μM, n = 6 wells): not at 5 or 10 μM
